Experimental data reported in BindingDB's records for doi:10.1016/s0960-894x(99)00298-x (Agrevo, 1999).

Experiment: Inhibition of Pisum sativum (pea) adenylate deaminase

IC50: 0.1 µM
SMILES: O=P(O)(O)OC[C@H]1O[C@@H](c2n[nH]c3cncnc23)[C@H](O)[C@@H]1O
